From US20130089627A1, “METHOD FOR TREATING A CANCER CAUSED BY CANCER STEM CELLS” (NEW BELLUS ENTERPRISES CO., LTD., priority 2011, published 2013)
One block for each compound: values may come before it.

How the values were obtained:
[1] = system: Hepatoma cancer stem cells; experiment: Co-administration with chemotherapy drugs, hepatoma cancer stem cells; type: cell-based
Description: (§1) The definition of half maximal inhibitory concentration (IC50) is the concentration for survival rate of 50% under the reaction with drugs or compounds.
(§2) Cisplatin: cis-diammineplatinum(II) dichloride (Sigma-Aldrich, USA)
(§3) Taxol: Paclitaxel (Sigma-Aldrich, USA)
(§4) According to the pretested half maximal inhibitory concentration (IC50) of D1˜D5, different cancer stem cells were used to test the cytotoxic concentration for (1) the co-administration of A. camphorata extracts with the chemotherapy drug, Cisplatin; (2) the co-administration of A. camphorata extracts with the chemotherapy drug, Taxol.

[2] = system: colorectal cancer stem cells; experiment: Co-administration with chemotherapy drugs, colorectal cancer stem cells; type: cell-based
Description: as §1, §2, §3, §4

[3] = system: lung cancer stem cells; experiment: Co-administration with chemotherapy drugs, lung cancer stem cells; type: cell-based, human
Description: as §1, §2, §3, §4

[4] = system: breast cancer stem cells; experiment: Co-administration with chemotherapy drugs, breast cancer stem cells; type: cell-based
Description: as §1, §2, §3, §4

[5] = system: Glioblastomas multiform cancer stem cells; experiment: Co-administration with chemotherapy drugs, GBM cancer stem cells; type: cell-based
Description: as §1, §2, §3, §4

[6] = system: Head and neck squamous cell carcinoma cancer stem cells; experiment: Co-administration with chemotherapy drugs, HNSCC cancer stem cells; type: cell-based
Description: as §1, §2, §3, §4

[7] = system: breast cancer stem cells (Breast CSC); experiment: MTT cytotoxicity test, breast cancer stem cells; type: cell-based
Description: (§5) The purpose of the present invention is to screen for the A. camphorata extracts with anti-cancer activity. MTT (3-(4,5-dimethylthiazol-2-yl)-2,5-diphenyltetrazolium bromide) assay was used to complete the cytotoxicity test. Human lung cancer stem cells (lung CSC), human Adult fibroblast-1 (AF-1), glioblastoma multiforme cancer stem cells (GBM CSC), human Adult fibroblast-2 (AF-2), head and neck squamous cell carcinoma cancer stem cells (HNSCC CSC), colorectal cancer stem cells (CRC CSC), as well as breast cancer stem cells (Breast CSC), hepatoma cancer stem cells (hepatoma CSC), leukemia cancer stem cells (leukemia CSC) and gastric cancer stem cells (Gastric CSC) are used in cell experiments of the present invention.
(§6) The principle of cytotoxic activity test (MTT assay) is that succinate dehydrogenase in the mitochondria of a living cell can reduce MTT (3-(4,5-dimethylthiazol-2-yl)-2,5-diphenyltetrazolium bromide), and blue-violet formazan was formed under reaction with cytochrome C. Generally, the amount of formazan generated is proportional to the activity of the mitochondria and the number of living cells. After adding dimethyl sulfoxide (DMSO) to dissolve formazan, the number of living cells can be estimated by the optical density (OD) value. […]

[8] = system: Glioblastomas multiform cancer stem cells (GBM CSC); experiment: MTT cytotoxicity test, GBM cancer stem cells (subline not stated); type: cell-based
Description: as §5, §6

[9] = system: cancer stem cells; experiment: MTT cytotoxicity tests of 4-acetyl-antroquinonol B, summary in words; type: cell-based; conditions: lung adenocarcinoma CD133 positive, oral, GBM, breast and colorectal cancer stem cells
Description: (§7) The principle of cytotoxic activity test (MTT assay) is that succinate dehydrogenase in the mitochondria of a living cell can reduce MTT (3-(4,5-dimethylthiazol-2-yl)-2,5-diphenyltetrazolium bromide), and blue-violet formazan was formed under reaction with cytochrome C. Generally, the amount of formazan generated is proportional to the activity of the mitochondria and the number of living cells. After adding dimethyl sulfoxide (DMSO) to dissolve formazan, the number of living cells can be estimated by the optical density (OD) value.

[10] = system: Lung adenocarcinoma CD133 positive cancer stem cells; experiment: MTT cytotoxicity test, lung adenocarcinoma CD133 positive cancer stem cells; type: cell-based
Description: as §7, §1

[11] = system: colorectal cancer stem cells (CRC CSC); experiment: MTT cytotoxicity test, colorectal cancer stem cells; type: cell-based
Description: as §5, §6

[12] = system: human lung cancer stem cells (Lung CSC); experiment: MTT cytotoxicity test, lung cancer stem cells; type: cell-based
Description: as §5, §6

[13] = system: oral cancer stem cells (Oral CSC); experiment: MTT cytotoxicity test, oral cancer stem cells; type: cell-based
Description: as §7, §1

Structure (SMILES): N.N.[Cl][Pt][Cl] [Cisplatin, cis-diammineplatinum(II) dichloride]
Cisplatin IC50 [1]: 40.15 µg/mL | Cisplatin IC50 [2]: 42.83 µg/mL | Cisplatin IC50 [3]: 17.98 µg/mL | Cisplatin IC50 [4]: 20.23 µg/mL | Cisplatin IC50 [5]: 23.33 µg/mL | Cisplatin IC50 [6]: 18.87 µg/mL

Structure (SMILES): COC1=C(OC)C(OC(C)=O)C(C/C=C(\C)CCC2(C)CCC(=O)O2)C(C)C1=O (stereo not shown) [4-acetyl-antroquinonol B]
half maximal inhibitory concentration (IC50) of 4-acetyl-antroquinonol B [7]: 20.77 µg/mL | half maximal inhibitory concentration (IC50) of 4-acetyl-antroquinonol B [8]: 18.2 µg/mL | inhibitory effects on the growth of cancer stem cells (in words) [9]: effective inhibitory effects on the growth of cancer stem cells | half maximal inhibitory concentration (IC50) of 4-acetyl-antroquinonol B [10]: 16.4 µg/mL | half maximal inhibitory concentration (IC50) of 4-acetyl-antroquinonol B [11]: 9.72 µg/mL | half maximal inhibitory concentration (IC50) of 4-acetyl-antroquinonol B [12]: 12.37 µg/mL | half maximal inhibitory concentration (IC50) of 4-acetyl-antroquinonol B [13]: 14.37 µg/mL

IC50 ([1]; read-out: Taxol IC50): 0.0335 µg/mL | IC50 ([2]; read-out: Taxol IC50): 0.0317 µg/mL | IC50 ([3]; Homo sapiens, read-out: Taxol IC50): 0.0137 µg/mL | IC50 ([4]; read-out: Taxol IC50): 0.00983 µg/mL | IC50 ([5]; read-out: Taxol IC50): 0.0207 µg/mL | IC50 ([6]; read-out: Taxol IC50): 0.0102 µg/mL
Structure (SMILES): CC(=O)O[C@H]1C(=O)[C@@]2(C)[C@H]([C@H](OC(=O)c3ccccc3)[C@]3(O)C[C@H](OC(=O)[C@H](O)[C@@H](NC(=O)c4ccccc4)c4ccccc4)C(C)=C1C3(C)C)[C@]1(OC(C)=O)CO[C@@H]1C[C@@H]2O [Taxol, Paclitaxel]
